Reference: US7674795B2, “Fluorene derivatives, composition containing said derivatives and the use thereof” (Aventis Pharma SA, priority 2005, dated 2010)
Counter-ions that a name gives are not always drawn.

molecular target: Hsp82 (Saccharomyces cerevisiae, UniProt P02829); assay: PK/LDH enzyme coupling test of the ATPase activity of Hsp82 (NADH decrease at 340 nm); format: biochemical; conditions: 1 μM Hsp82, 250 μM ATP, 37° C., pyruvate kinase/lactate dehydrogenase coupling, read-out: Hsp82 ATPase IC50
Source text: The formation of ADP due to the ATPase activity of Hsp82 was utilized for developing another method of evaluating the enzymatic activity of this enzyme by application of an enzyme coupling system employing pyruvate kinase (PK) and lactate dehydrogenase (LDH). In this spectrophotometric method of the kinetic type, the PK catalyses the formation of ATP and of pyruvate starting from phosphoenol-pyruvate (PEP) and the ADP produced by HSP82. The pyruvate that formed, an LDH substrate, is then converted to lactate in the presence of NADH. In this case, the decrease in the concentration of NADH, measured by the decrease in absorbance at wavelength of 340 nm, is proportional to the concentration of ADP produced by HSP82. […] This mixture is preincubated at 37° C. for 30 min before adding 3.77 units of LDH and 3.77 units of PK. The reaction is started by adding the product to be evaluated, in variable concentrations, and of Hsp82, at a concentration of 1 μM. The enzymatic activity of Hsp82 is then measured continuously in a microplate reader at 37° C., at wavelength of 340 nm. The initial reaction rate is found by measuring the slope of the tangent at the origin of the recorded curve. The enzymatic activity is expressed as μM of ADP formed per minute. The effect of the various products tested is expressed as percentage of inhibition of ATPase activity, using the following codes: • A: […]

Chain of Hsp82 (P02829 whole entry): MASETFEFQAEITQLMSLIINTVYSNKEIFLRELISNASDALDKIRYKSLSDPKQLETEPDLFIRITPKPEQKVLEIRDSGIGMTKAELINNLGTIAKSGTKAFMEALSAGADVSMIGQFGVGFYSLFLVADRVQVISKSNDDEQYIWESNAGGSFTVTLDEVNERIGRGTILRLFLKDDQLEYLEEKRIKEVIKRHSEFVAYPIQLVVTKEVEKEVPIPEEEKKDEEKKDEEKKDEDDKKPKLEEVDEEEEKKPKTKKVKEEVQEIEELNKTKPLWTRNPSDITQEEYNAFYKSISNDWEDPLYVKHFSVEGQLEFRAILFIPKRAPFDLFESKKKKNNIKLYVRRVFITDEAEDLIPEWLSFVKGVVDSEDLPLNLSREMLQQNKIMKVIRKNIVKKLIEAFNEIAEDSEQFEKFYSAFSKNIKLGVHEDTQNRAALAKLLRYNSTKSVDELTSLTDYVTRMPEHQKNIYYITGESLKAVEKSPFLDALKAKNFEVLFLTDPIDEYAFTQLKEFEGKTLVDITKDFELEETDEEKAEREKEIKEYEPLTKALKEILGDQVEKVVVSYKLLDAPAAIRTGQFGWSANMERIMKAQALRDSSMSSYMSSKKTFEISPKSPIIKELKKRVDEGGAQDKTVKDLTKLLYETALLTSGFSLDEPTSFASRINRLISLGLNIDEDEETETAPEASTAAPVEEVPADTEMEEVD

| SMILES | IC50 |
| --- | --- |
| CC(=O)CCC(=O)NC1c2ccccc2-c2c(-c3nc4ccncc4[nH]3)cccc21 (racemic) [Example 49, hydrochloride of [4-(3H-imidazo[4,5-c]pyridin-2-yl)-9H-fluoren-9(R,S)-yl]amide of 4-oxo-pentanoic acid] | 10 to 100 µM |
| O/N=C1\c2ccccc2-c2c1cccc2-c1nc2cnccc2[nH]1 [Example 19, 4-(3H-imidazo[4,5-c]pyridin-2-yl)-fluoren-9-one oxime (Z)] | 1 to 10 µM |
| O=C(NCc1ccc(Cl)nc1)C1c2ccccc2-c2c(-c3nc4cnccc4[nH]3)cccc21 (racemic) [Example 2, (6-chloropyridin-3-ylmethyl)-amide of 4-(1H-imidazo[4,5-c]pyridin-2-yl)-9H-fluorene-9(R,S)-carboxylic acid] | 10 to 100 µM |
| O=C(NC1c2ccccc2-c2c(-c3nc4ccncc4[nH]3)cccc21)c1cc(O)nc2ccccc12 (racemic) [Example 31, [4-(3H-imidazo[4,5-c]pyridin-2-yl)-9H-fluoren-9(R,S)-yl]amide of 2-hydroxy-quinoline-4-carboxylic acid] | 1 to 10 µM |
| CCOC(=O)NC1c2ccccc2-c2c(-c3nc4cnccc4[nH]3)cccc21 (racemic) [Example 20, ethyl ester of [4-(3H-imidazo[4,5-c]pyridin-2-yl)-9H-fluoren-9(R,S)-yl]-carbamoic acid] | 1 to 10 µM |
| O=C(NC1c2ccccc2-c2c(-c3nc4ccncc4[nH]3)cccc21)c1cccc2cc(O)ccc12 (racemic) [Example 34, hydrochloride of [4-(3H-imidazo[4,5-c]pyridin-2-yl)-9H-fluoren-9(R,S)-yl]amide of 6-hydroxy-naphthalene-1-carboxylic acid] | 1 to 10 µM |
| O=C(NCc1ccncc1)C1c2ccccc2-c2c(-c3nc4cnccc4[nH]3)cccc21 (racemic) [Example 4, hydrochloride of the (pyridin-4-ylmethyl)-amide of 4-(3H-imidazo[4,5-c]pyridin-2-yl)-9H-fluorene-9(R,S)-carboxylic acid] | 10 to 100 µM |
| c1ccc2c(c1)-c1c(-c3nc4cnccc4[nH]3)cccc1C2NCc1ccc2[nH]ccc2c1 (racemic) [Example 18, N-[4-(3H-imidazo[4,5-c]pyridin-2-yl)-9H-fluoren-9(R,S)-yl]-(1H-indol-5-ylmethyl)-amine] | 10 to 100 µM |
| NC(=O)CCC(=O)NC1c2ccccc2-c2c(-c3nc4cnccc4[nH]3)cccc21 (racemic) [Example 40, N-[4-(3H-imidazo[4,5-c]pyridin-2-yl)-9H-fluoren-9(R,S)-yl]-succinamide trifluoroacetate] | 1 to 10 µM |
| O=C(NC1c2ccccc2-c2c(-c3nc4ccncc4[nH]3)cccc21)c1ccc2[nH]ncc2c1 (racemic) [Example 45, [4-(3H-imidazo[4,5-c]pyridin-2-yl)-9H-fluoren-9(R,S)-yl]amide of 1H-indazole-5-carboxylic acid] | 1 to 10 µM |
| O=C(Cc1cccnc1)NC1c2ccccc2-c2c(-c3nc4cnccc4[nH]3)cccc21 (racemic) [Example 21, N-[4-(3H-imidazo[4,5-c]pyridin-2-yl)-9H-fluoren-9(R,S)-yl]-2-(pyridin-3-yl)-acetamide] | 1 to 10 µM |
| O=C(NC1c2ccccc2-c2c(-c3nc4ccncc4[nH]3)cccc21)c1cccnc1 (racemic) [Example 48, N-[4-(3H-imidazo[4,5-c]pyridin-2-yl)-9H-fluoren-9(R,S)-yl]-nicotinamide] | 1 to 10 µM |
| O=C(Cc1ccncc1)NC1c2ccccc2-c2c(-c3nc4ccncc4[nH]3)cccc21 (racemic) [Example 37, N-[4-(3H-imidazo[4,5-c]pyridin-2-yl)-9H-fluoren-9(R,S))-yl]-2-pyridin-4-yl-acetamide trifluoroacetate] | 1 to 10 µM |
| NC1c2ccccc2-c2c(-c3nc4cnccc4[nH]3)cccc21 (racemic) [Example 6, 4-(3H-imidazo[4,5-c]pyridin-2-yl)-9H-fluorene-9(R,S)-amine] | 10 to 100 µM |
| O=C(C=C1c2ccccc2-c2c1cccc2-c1nc2cnccc2[nH]1)Nc1cccnc1 (mixture of isomers) [Example 17, 2-[4-(3H-imidazo[4,5-c]pyridin-2-yl)-fluoren-(9E,Z)-ylidene]-N-pyridin-3-yl-acetamide] | 1 to 10 µM |

Now from value to compound:

| IC50 | SMILES |
| --- | --- |
| 10 to 100 µM | Cc1noc(C)c1NC(=O)NC1c2ccccc2-c2c(-c3nc4ccncc4[nH]3)cccc21 (racemic) [Example 76, 1-(3,5-dimethyl-isoxazol-4-yl)-3-[4-(3H-imidazo[4,5-c]pyridin-2-yl)-9H-fluoren-9(R,S)-yl]-urea] |
| 10 to 100 µM | CN(C)c1cccc2c(S(=O)(=O)NC3c4ccccc4-c4c(-c5nc6ccncc6[nH]5)cccc43)cccc12 (racemic) [Example 52, [4-(3H-imidazo[4,5-c]pyridin-2-yl)-9H-fluoren-9(R,S)-yl]amide trifluoroacetate of 5-dimethylamino-naphthalene-1-sulphonic acid] |
| 1 to 10 µM | CCOC(=O)CCNC(=O)NC1c2ccccc2-c2c(-c3nc4ccncc4[nH]3)cccc21 (racemic) [Example 77, ethyl ester of 3-{3-[4-(3H-imidazo[4,5-c]pyridin-2-yl)-9H-fluoren-9(R,S)-yl]-ureido}-propionic acid] |
| 10 to 100 µM | O=C(NCc1ccco1)NC1c2ccccc2-c2c(-c3nc4ccncc4[nH]3)cccc21 (racemic) [Example 74, 1-furan-2-ylmethyl-3-[4-(3H-imidazo[4,5-c]pyridin-2-yl)-9H-fluoren-9(R,S)-yl]-urea] |
| 1 to 10 µM | ON=C1c2ccccc2-c2c1cccc2-c1nc2ccc(F)cc2[nH]1 (racemic) [Example 70, 4-(6-fluoro-1H-benzimidazol-2-yl)-fluoren-9-one oxime (Z,E)] |
| 1 to 10 µM | NC(=O)[C@H](N)CC(=O)NC1c2ccccc2-c2c(-c3nc4cnccc4[nH]3)cccc21 (mixture of isomers) [Example 62, (R)-2-amino-N4-[4-(3H-imidazo[4,5-c]pyridin-2-yl)-9H-fluoren-9(R,S)-yl]-succinamide] |
| 1 to 10 µM | O=C(NC1c2ccccc2-c2c(-c3nc4ccncc4[nH]3)cccc21)N1CCOCC1 (racemic) [Example 51, [4-(3H-imidazo[4,5-c]pyridin-2-yl)-9H-fluoren-9(R,S)-yl]amide trifluoroacetate of morpholine-4-carboxylic acid] |
| 10 to 100 µM | C[C@@H](C(=O)N[C@@H]1c2ccccc2-c2c(-c3nc4ccncc4[nH]3)cccc21)c1cccnc1 (racemic) [Example 100, N-[4-(3H-imidazo[4,5-c]pyridin-2-yl)-9H-fluoren-9(R,S)-yl]-2(R,S)-(pyridin-3-yl)-propionamide] |
| 1 to 10 µM | O=C(NC1c2ccccc2-c2c(-c3nc4ccncc4[nH]3)cccc21)c1ccnc(O)n1 (centres unmarked) [Example 89, [4-(3H-imidazo[4,5-c]pyridin-2-yl)-9H-fluoren-9-yl]amide of 2-hydroxypyrimidine-4-carboxylic acid] |
| 1 to 10 µM | O=C(NC1c2ccccc2-c2c(-c3nc4ccncc4[nH]3)cccc21)c1cc(N2CCCCC2)nc2ccccc12 (racemic) [Example 119, [4-(3H-imidazo[4,5-c]pyridin-2-yl)-9H-fluoren-9(R,S)-yl]amide of 2-piperidin-1-yl-quinoline-4-carboxylic acid] |
| 1 to 10 µM | O=C(NC1c2ccccc2-c2c(-c3nc4ccncc4[nH]3)cccc21)c1cc(-c2ccco2)nc2ccccc12 (racemic) [Example 113, [4-(3H-imidazo[4,5-c]pyridin-2-yl)-9H-fluoren-9(R,S)-yl]amide of 2-(furan-2-yl)-quinoline-4-carboxylic acid] |
| 1 to 10 µM | O=C(NC1c2ccccc2-c2c(-c3nc4ccncc4[nH]3)cccc21)c1cc(C2CC2)nc2ccccc12 (centres unmarked) [Example 85, [4-(3H-imidazo[4,5-c]pyridin-2-yl)-9H-fluoren-9-yl]amide of 2-cyclopropyl-quinoline-4-carboxylic acid] |
| 1 to 10 µM | O=C(NC1c2ccccc2-c2c(-c3nc4ccncc4[nH]3)cccc21)c1ccnc(Cl)c1 (racemic) [Example 87, 2-chloro-N-[4-(3H-imidazo[4,5-c]pyridin-2-yl)-9H-fluoren-9(R,S)-yl]-isonicotinamide] |
| 1 to 10 µM | O=C(NC1c2ccccc2-c2c(-c3nc4ccncc4[nH]3)cccc21)c1cc(O)nc(O)n1 (centres unmarked) [Example 88, [4-(3H-imidazo[4,5-c]pyridin-2-yl)-9H-fluoren-9-yl]amide of 2,6-dihydroxypyrimidine-4-carboxylic acid] |
| 1 to 10 µM | COc1ccc2nc(-c3cccc4c3-c3ccccc3C4NC(=O)c3ccncc3)[nH]c2c1 (racemic) [Example 106, N-[4-(6-methoxy-1H-benzimidazol-2-yl)-9H-fluoren-9(R,S)-yl]-isonicotinamide] |
| 1 to 10 µM | O=C(NC1c2ccccc2-c2c(-c3nc4ccncc4[nH]3)cccc21)c1ccnc(CO)c1 (racemic) [Example 94, 2-hydroxymethyl-N-[4-(3H-imidazo[4,5-c]pyridin-2-yl)-9H-fluoren-9(R,S)-yl]-isonicotinamide] |

same assay, conditions: Hsp82 ATPase IC50 μM, 1 μM Hsp82, 250 μM ATP, 37° C., pyruvate kinase/lactate dehydrogenase coupling

| SMILES | IC50 |
| --- | --- |
| NC(=O)NC1c2ccccc2-c2c(-c3nc4ccncc4[nH]3)cccc21 (racemic) [Example 28, [4-(3H-imidazo[4,5-c]pyridin-2-yl)-9H-fluoren-9(R,S)-yl]-urea trifluoroacetate] | 10 to 100 µM |
